Like-named read-outs stand apart in the source and are kept apart here.
Experiments:
Experiment in all cases: biochemical
Design in all cases: KINOMEscan scanMAX competition binding, DNA-tagged kinases, qPCR read-out, percent control at 300 nM
ACVR2A = ACVR2A (Homo sapiens, UniProt P27037)
BRK = molecular target: T1, BRK (Homo sapiens, UniProt Q13882)
T1 construct: gene PTK6

CAMK1G = CAMK1G (Homo sapiens, UniProt Q96NX5)
CDKL3 = CDKL3 (Homo sapiens, UniProt Q8IVW4)
EPHA4 = EPHA4 (Homo sapiens, UniProt P54764)
RIPK4 = molecular target: T2, RIPK4 (Homo sapiens, UniProt P57078)
T2 sequence (P57078 1-832): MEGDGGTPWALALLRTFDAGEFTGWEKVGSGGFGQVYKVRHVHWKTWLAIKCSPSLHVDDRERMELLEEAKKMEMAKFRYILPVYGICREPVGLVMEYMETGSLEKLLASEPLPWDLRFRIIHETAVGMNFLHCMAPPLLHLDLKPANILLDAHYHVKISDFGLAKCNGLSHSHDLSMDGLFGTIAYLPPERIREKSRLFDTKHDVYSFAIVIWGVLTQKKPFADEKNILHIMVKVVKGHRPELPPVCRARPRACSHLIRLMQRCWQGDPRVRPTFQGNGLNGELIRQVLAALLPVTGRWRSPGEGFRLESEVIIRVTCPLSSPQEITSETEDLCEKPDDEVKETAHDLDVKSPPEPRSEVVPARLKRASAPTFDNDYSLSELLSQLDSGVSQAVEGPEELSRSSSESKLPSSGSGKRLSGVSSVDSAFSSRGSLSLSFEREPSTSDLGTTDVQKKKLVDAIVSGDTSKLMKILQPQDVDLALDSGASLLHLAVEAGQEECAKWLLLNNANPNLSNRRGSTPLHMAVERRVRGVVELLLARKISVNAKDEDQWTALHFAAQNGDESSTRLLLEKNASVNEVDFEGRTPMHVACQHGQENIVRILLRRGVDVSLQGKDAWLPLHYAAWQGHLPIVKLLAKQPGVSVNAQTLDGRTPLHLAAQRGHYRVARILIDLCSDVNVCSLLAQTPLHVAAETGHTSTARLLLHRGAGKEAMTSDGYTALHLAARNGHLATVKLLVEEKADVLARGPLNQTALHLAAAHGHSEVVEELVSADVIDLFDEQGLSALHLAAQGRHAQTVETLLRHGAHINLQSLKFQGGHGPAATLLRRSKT

TTK = molecular target: T3, TTK (Homo sapiens, UniProt P33981)
T3 sequence (P33981 1-857): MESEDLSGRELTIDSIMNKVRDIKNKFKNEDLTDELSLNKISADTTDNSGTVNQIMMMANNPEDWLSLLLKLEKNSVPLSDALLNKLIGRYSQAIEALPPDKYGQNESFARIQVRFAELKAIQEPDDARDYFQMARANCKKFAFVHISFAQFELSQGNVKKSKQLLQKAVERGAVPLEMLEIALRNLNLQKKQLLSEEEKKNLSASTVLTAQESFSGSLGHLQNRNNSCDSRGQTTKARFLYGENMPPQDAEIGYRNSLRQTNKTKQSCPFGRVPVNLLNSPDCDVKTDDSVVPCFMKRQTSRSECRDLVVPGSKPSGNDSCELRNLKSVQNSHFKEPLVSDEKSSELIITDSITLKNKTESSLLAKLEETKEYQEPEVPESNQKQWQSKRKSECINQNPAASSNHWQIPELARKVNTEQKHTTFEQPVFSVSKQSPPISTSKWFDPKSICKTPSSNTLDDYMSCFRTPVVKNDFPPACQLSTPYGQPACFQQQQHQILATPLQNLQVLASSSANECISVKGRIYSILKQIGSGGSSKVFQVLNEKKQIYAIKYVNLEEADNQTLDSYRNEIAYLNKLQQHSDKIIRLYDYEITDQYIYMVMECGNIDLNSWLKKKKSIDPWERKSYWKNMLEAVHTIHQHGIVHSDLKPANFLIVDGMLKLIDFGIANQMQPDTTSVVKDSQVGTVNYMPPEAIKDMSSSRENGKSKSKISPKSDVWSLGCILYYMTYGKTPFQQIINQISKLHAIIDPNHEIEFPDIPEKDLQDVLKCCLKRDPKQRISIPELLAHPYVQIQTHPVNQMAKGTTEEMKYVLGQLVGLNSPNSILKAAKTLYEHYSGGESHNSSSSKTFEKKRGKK

PDGFRA = PDGFRA (Homo sapiens, UniProt P16234)
[1] = read-out: Percent control / Acalabrutinib
[2] = read-out: Percent control / Ibrutinib
[3] = read-out: Percent control / Tirabrutinib
[4] = read-out: Percent control / Zanubrutinib

T1 sequence (Q13882 whole entry): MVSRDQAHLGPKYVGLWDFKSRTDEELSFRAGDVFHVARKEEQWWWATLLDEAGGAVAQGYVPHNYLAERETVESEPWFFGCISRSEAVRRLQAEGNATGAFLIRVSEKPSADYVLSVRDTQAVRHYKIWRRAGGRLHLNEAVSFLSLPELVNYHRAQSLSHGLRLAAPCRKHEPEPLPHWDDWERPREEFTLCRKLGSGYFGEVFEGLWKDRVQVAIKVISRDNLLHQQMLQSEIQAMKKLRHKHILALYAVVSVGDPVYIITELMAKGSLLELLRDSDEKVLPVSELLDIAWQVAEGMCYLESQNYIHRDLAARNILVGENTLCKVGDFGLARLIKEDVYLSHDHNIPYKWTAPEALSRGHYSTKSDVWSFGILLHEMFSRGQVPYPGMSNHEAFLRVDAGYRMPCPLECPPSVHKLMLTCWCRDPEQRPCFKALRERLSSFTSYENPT
Sequence of CDKL3 (Q8IVW4 whole entry): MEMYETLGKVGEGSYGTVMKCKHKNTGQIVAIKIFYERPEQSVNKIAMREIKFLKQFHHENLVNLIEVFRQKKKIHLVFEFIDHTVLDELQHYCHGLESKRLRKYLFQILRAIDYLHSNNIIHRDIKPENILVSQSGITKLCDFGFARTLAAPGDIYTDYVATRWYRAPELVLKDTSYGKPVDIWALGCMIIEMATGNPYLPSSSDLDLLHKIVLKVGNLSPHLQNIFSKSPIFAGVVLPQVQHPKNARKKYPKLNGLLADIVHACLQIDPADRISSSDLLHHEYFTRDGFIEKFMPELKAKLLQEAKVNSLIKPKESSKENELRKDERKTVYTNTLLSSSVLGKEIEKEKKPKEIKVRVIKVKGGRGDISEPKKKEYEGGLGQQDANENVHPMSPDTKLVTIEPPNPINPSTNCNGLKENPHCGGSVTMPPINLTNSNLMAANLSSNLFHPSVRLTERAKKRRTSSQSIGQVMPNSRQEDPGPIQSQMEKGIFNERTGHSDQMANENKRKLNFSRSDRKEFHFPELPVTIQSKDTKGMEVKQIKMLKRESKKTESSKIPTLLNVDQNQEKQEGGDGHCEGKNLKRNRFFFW
Sequence of PDGFRA (P16234 whole entry): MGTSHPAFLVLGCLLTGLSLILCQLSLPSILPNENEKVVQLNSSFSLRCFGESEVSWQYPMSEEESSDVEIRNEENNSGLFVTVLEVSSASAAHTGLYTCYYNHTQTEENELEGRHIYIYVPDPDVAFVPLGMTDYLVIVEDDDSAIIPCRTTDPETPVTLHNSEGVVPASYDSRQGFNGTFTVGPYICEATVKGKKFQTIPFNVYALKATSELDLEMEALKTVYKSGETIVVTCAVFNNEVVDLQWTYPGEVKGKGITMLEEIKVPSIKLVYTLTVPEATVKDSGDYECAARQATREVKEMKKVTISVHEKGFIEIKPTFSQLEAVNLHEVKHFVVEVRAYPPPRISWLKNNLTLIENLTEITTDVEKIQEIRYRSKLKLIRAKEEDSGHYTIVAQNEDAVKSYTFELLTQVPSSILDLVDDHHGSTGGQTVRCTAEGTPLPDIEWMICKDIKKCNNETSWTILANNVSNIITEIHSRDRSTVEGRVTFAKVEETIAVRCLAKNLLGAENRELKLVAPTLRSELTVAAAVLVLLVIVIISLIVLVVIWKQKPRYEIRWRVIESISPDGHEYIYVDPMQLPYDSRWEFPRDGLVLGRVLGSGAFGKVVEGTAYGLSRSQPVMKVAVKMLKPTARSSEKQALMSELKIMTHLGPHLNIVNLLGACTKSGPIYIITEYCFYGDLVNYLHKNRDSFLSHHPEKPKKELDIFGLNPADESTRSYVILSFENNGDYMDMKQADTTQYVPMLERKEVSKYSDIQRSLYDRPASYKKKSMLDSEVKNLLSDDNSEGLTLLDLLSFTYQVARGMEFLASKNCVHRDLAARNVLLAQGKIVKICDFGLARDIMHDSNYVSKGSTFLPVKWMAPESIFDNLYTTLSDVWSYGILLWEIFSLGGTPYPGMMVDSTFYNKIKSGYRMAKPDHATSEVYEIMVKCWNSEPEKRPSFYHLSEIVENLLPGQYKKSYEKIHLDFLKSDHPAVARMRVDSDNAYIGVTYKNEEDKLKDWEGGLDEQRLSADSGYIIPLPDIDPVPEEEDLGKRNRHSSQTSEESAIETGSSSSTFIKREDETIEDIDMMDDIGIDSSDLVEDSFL
Sequence of ACVR2A (P27037 whole entry): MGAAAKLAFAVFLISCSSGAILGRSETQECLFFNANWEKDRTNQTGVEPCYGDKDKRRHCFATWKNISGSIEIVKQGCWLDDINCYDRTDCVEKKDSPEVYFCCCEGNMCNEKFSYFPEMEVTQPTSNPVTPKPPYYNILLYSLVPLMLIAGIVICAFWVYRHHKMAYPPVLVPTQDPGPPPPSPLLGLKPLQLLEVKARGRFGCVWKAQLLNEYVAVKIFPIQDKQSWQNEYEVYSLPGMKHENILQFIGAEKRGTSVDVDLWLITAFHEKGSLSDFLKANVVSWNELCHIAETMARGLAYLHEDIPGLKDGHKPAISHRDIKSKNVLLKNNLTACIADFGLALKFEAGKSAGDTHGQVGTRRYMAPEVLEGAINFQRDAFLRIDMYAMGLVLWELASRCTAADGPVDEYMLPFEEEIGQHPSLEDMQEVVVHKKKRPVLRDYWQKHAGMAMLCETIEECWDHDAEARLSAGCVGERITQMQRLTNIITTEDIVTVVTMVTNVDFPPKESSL
Sequence of CAMK1G (Q96NX5 whole entry): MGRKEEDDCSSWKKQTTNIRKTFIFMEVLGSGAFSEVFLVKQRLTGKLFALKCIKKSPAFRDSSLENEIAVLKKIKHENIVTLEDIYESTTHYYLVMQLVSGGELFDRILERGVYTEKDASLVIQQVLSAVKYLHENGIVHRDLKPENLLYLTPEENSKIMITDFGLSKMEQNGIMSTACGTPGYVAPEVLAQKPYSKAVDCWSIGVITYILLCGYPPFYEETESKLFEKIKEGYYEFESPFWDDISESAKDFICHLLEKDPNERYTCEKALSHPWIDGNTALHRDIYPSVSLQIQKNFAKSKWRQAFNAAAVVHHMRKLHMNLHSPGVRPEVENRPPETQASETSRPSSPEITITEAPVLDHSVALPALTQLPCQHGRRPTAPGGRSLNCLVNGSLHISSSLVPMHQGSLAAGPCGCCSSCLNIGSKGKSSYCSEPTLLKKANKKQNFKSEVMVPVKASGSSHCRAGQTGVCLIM
Sequence of EPHA4 (P54764 whole entry): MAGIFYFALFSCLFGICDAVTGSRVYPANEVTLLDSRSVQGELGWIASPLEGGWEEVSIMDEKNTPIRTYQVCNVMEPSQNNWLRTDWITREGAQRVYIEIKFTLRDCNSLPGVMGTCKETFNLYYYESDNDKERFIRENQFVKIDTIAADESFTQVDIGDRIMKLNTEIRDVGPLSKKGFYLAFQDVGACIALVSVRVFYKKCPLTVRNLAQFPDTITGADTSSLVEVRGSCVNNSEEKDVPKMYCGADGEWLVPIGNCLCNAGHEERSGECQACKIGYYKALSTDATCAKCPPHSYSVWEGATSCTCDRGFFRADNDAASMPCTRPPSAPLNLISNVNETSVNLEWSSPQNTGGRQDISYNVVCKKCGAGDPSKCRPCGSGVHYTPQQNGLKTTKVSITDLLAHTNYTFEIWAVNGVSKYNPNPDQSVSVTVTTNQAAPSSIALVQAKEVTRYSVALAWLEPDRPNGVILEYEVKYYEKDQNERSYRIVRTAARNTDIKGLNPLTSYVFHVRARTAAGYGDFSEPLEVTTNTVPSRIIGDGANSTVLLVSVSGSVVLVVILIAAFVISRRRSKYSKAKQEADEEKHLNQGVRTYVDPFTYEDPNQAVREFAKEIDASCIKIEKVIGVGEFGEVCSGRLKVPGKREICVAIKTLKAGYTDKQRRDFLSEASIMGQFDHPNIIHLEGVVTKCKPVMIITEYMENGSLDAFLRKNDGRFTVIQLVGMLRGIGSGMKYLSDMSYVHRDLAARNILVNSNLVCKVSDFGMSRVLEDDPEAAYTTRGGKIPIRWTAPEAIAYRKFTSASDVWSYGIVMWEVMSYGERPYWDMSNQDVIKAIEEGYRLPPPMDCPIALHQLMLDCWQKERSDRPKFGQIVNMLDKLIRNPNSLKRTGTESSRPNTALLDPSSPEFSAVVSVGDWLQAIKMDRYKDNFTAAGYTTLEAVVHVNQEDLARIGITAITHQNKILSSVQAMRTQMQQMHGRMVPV

## CC#CC(=O)N1CCC[C@H]1c1nc(-c2ccc(C(=O)Nc3ccccn3)cc2)c2c(N)nccn12 [Acalabrutinib]
ACVR2A; [1]
  remaining binding at 0.3 µM: 80%
BRK; [1]
  remaining binding at 0.3 µM: 87%
CAMK1G; [1]
  remaining binding at 0.3 µM: 97%
CDKL3; [1]
  remaining binding at 0.3 µM: 78%
EPHA4; [1]
  remaining binding at 0.3 µM: 96%
RIPK4; [1]
  remaining binding at 0.3 µM: 85%
TTK; [1]
  remaining binding at 0.3 µM: 64%

## C=CC(=O)N1CCC[C@@H](n2nc(-c3ccc(Oc4ccccc4)cc3)c3c(N)ncnc32)C1 [Ibrutinib]
ACVR2A; [2]
  remaining binding at 0.3 µM: 86%
BRK; [2]
  remaining binding at 0.3 µM: 3.4%
CDKL3; [2]
  remaining binding at 0.3 µM: 98%
EPHA4; [2]
  remaining binding at 0.3 µM: 82%
PDGFRA; [2]
  remaining binding at 0.3 µM: 96%
RIPK4; [2]
  remaining binding at 0.3 µM: 76%
TTK; [2]
  remaining binding at 0.3 µM: 93%

## CC#CC(=O)N1CC[C@@H](n2c(=O)n(-c3ccc(Oc4ccccc4)cc3)c3c(N)ncnc32)C1 [Tirabrutinib]
CAMK1G; [3]
  remaining binding at 0.3 µM: 98%
EPHA4; [3]
  remaining binding at 0.3 µM: 94%
PDGFRA; [3]
  remaining binding at 0.3 µM: 95%
RIPK4; [3]
  remaining binding at 0.3 µM: 70%

## C=CC(=O)N1CCC([C@@H]2CCNc3c(C(N)=O)c(-c4ccc(Oc5ccccc5)cc4)nn32)CC1 [Zanubrutinib]
ACVR2A; [4]
  remaining binding at 0.3 µM: 100%
BRK; [4]
  remaining binding at 0.3 µM: 35%
CAMK1G; [4]
  remaining binding at 0.3 µM: 96%
CDKL3; [4]
  remaining binding at 0.3 µM: 92%
PDGFRA; [4]
  remaining binding at 0.3 µM: 100%
RIPK4; [4]
  remaining binding at 0.3 µM: 91%
TTK; [4]
  remaining binding at 0.3 µM: 94%

From paper PMC10004634 (PLOS ONE, 2023)
